Experiments:
Format in all cases: in vivo, Male Wistar rats
remnant kidney (RK) rats [1] = experiment: Body weight, food and water intake in remnant kidney rats; conditions: RK rats (RK + Fx or RK + OA group)
Description: Male Wistar rats (295-340 g) were used to produce rats with remnant kidney (RK) as follows. […] Rats were then assigned to one of four treatment groups: Group 1, RK control rats (n=7); Group 2, RK+febuxostat (Fx) rats (n=8); Group 3, RK+oxonic acid (OA) rats (n=6); and Group 4, RK+OA+Fx (n=10). Oxonic acid (OA) (Sigma-Aldrich, St Louis Mo., USA), administered at 750 mg/kg body weight daily by oral gavage, was given starting the day after the ⅚ nephrectomy. Beginning immediately following the surgery, febuxostat was administered in drinking water at 30 mg/L (3-4 mg/kg/day), whereas the respective controls received only drinking water (with 3.5 mg/L of NaCl added to keep an equivalent salt concentration to the Fx-containing water). All groups were treated for four weeks. Body weight (beginning just before surgery) and food and water intakes were measured daily. Systolic blood pressure, measured in conscious rats by a tail cuff sphygmomanometer, and plasma uric acid (UA) levels were measured at just before surgery (namely, at baseline) and at the end of the four weeks. Proteinuria was measured at baseline and at the end of two and four weeks. A renal micropuncture procedure along with systemic blood pressure monitoring under pentobarbital anesthesia was performed at the end of four weeks followed by morphologic evaluation of the renal preglomerular microvasculature. Food and water intake were determined daily. Systolic blood pressure (SBP) was measured by a tail-cuff sphygmomanometer using an automated system (XBP-100; Kent Scientific Co, Torrington, Conn., USA) in conscious animals. All animals were preconditioned for blood pressure measurements one week before each experiment. Plasma uric acid was quantified using a commercial kit (Diagnostic Chemicals Ltd, Charlottetown, PEI, Canada). Proteinuria was determined by turbidimetry by the method of trichloroacetic acid as described in Henry R J et al., “Turbidimetric determination of proteins with sulfosalicylic and tricholoroacetic acids”, Proc Soc Exp Biol Med 92:748-751 (1956), the contents of which are herein incorporated by reference.

remnant kidney (RK) rats [2] = experiment: Plasma uric acid in remnant kidney rats; conditions: RK+OA rats, end of four weeks
Description: Male Wistar rats (295-340 g) were used to produce rats with remnant kidney (RK) as follows. […] Rats were then assigned to one of four treatment groups: Group 1, RK control rats (n=7); Group 2, RK+febuxostat (Fx) rats (n=8); Group 3, RK+oxonic acid (OA) rats (n=6); and Group 4, RK+OA+Fx (n=10). Oxonic acid (OA) (Sigma-Aldrich, St Louis Mo., USA), administered at 750 mg/kg body weight daily by oral gavage, was given starting the day after the ⅚ nephrectomy. Beginning immediately following the surgery, febuxostat was administered in drinking water at 30 mg/L (3-4 mg/kg/day), whereas the respective controls received only drinking water (with 3.5 mg/L of NaCl added to keep an equivalent salt concentration to the Fx-containing water). All groups were treated for four weeks. Body weight (beginning just before surgery) and food and water intakes were measured daily. Systolic blood pressure, measured in conscious rats by a tail cuff sphygmomanometer, and plasma uric acid (UA) levels were measured at just before surgery (namely, at baseline) and at the end of the four weeks. Proteinuria was measured at baseline and at the end of two and four weeks. A renal micropuncture procedure along with systemic blood pressure monitoring under pentobarbital anesthesia was performed at the end of four weeks followed by morphologic evaluation of the renal preglomerular microvasculature. Food and water intake were determined daily. Systolic blood pressure (SBP) was measured by a tail-cuff sphygmomanometer using an automated system (XBP-100; Kent Scientific Co, Torrington, Conn., USA) in conscious animals. […] Plasma uric acid was quantified using a commercial kit (Diagnostic Chemicals Ltd, Charlottetown, PEI, Canada). Proteinuria was determined by turbidimetry by the method of trichloroacetic acid as described in Henry R J et al., “Turbidimetric determination of proteins with sulfosalicylic and tricholoroacetic acids”, Proc Soc Exp Biol Med 92:748-751 (1956), the contents of which are herein incorporated by reference.

remnant kidney (RK) rats [3] = experiment: Micropuncture procedure to assess glomerular hemodynamics
Description: Male Wistar rats (295-340 g) were used to produce rats with remnant kidney (RK) as follows. […] Rats were then assigned to one of four treatment groups: Group 1, RK control rats (n=7); Group 2, RK+febuxostat (Fx) rats (n=8); […] Oxonic acid (OA) (Sigma-Aldrich, St Louis Mo., USA), administered at 750 mg/kg body weight daily by oral gavage, was given starting the day after the 5⁄6 nephrectomy. […] All groups were treated for four weeks. Body weight (beginning just before surgery) and food and water intakes were measured daily. Systolic blood pressure, measured in conscious rats by a tail cuff sphygmomanometer, and plasma uric acid (UA) levels were measured at just before surgery (namely, at baseline) and at the end of the four weeks. Proteinuria was measured at baseline and at the end of two and four weeks. A renal micropuncture procedure along with systemic blood pressure monitoring under pentobarbital anesthesia was performed at the end of four weeks followed by morphologic evaluation of the renal preglomerular microvasculature. Animals were anesthetized with pentobarbital sodium (30 mg/kg, intraperitoneal (ip)) and placed on a thermoregulated table to maintain body temperature at 37° C. Trachea, jugular veins, femoral arteries and the left ureter were catheterized with polyethylene tubing (PE-240, PE-50, and PE-10). The left kidney was exposed, placed in a Lucite holder, sealed with agar, and covered with Ringer's solution. Mean arterial pressure (MAP) was monitored with a pressure transducer (Model p23 db; Gould, San Juan, Puerto Rico) connected to the catheter in the femoral artery and recorded on a polygraph (Grass Instruments, Quincy, Mass., USA). Blood samples were taken periodically and replaced with blood from a donor rat. Rats were maintained under euvolemic conditions by infusion of 10 mL/kg of body weight of isotonic rat plasma during surgery, followed by an infusion of 25%, polyfructosan, at 2.2 ml/h (Inutest; Fresenius Kabi, Linz, Austria). After 60 minutes, five to seven samples of proximal tubular fluid were obtained to determine flow rate and polyfructosan concentrations. Intratubular pressure under free-flow (FF) and stop-flow (SFP) conditions and peritubular capillary pressure (Pc) were measured in other proximal tubules with a servo-null device (Servo Nulling Pressure System; Instrumentation for Physiology and Medicine, San Diego, Calif., USA). Glomerular colloid osmotic pressure was estimated from protein concentrations obtained from blood of the femoral artery (Ca) and surface efferent arterioles (Ce). Polyfructosan was measured in plasma and urine samples by the anthrone-based technique described by Davidson and […] in “Simplification of the anthrone method for the determination of inulin in clearance studies,” J Lab Clin Med. 62:351-356 (1963), the contents of which are herein incorporated by reference. In brief, plasma samples were deproteinated first with trichloroacetic acid. After centrifugation, the supernatant was used for polyfructosan measurement. Polyfructosan concentrations in plasma and urine samples were assessed by the addition of anthrone reagent followed by incubation at 45° C. for 50 minutes and reading in a spectrophotometer set at wavelength of 620 nm. […] Total GFR was calculated using the following formula: GFR=(U×V)/P, where U is the polyfructosan concentration in urine, V is urine flow rate, and P is the polyfructosan concentration in plasma. The volume of fluid collected from individual proximal tubules was estimated from the length of the fluid column in a constant-bore capillary tube of known internal diameter. The concentration of tubular polyfructosan was measured by the microfluorometric method described by Vurek and Pegram in “Fluorometric method for the determination of nanogram quantities of inulin,” Anal Biochem 16:409-419 (1966), the contents of which are herein incorporated by reference. […]

remnant kidney (RK) rats [4] = experiment: Renal arteriolar morphology; conditions: RK rats vs RK control group
Description: Male Wistar rats (295-340 g) were used to produce rats with remnant kidney (RK) as follows. […] Rats were then assigned to one of four treatment groups: Group 1, RK control rats (n=7); Group 2, RK+febuxostat (Fx) rats (n=8); Group 3, RK+oxonic acid (OA) rats (n=6); and Group 4, RK+OA+Fx (n=10). Oxonic acid (OA) (Sigma-Aldrich, St Louis Mo., USA), administered at 750 mg/kg body weight daily by oral gavage, was given starting the day after the 5⁄6 nephrectomy. Beginning immediately following the surgery, febuxostat was administered in drinking water at 30 mg/L (3-4 mg/kg/day), whereas the respective controls received only drinking water (with 3.5 mg/L of NaCl added to keep an equivalent salt concentration to the Fx-containing water). After the micropuncture study, kidneys were washed by perfusion with phosphate-buffered saline and then fixed with 4% paraformaldehyde. Renal biopsies were embedded in paraffin. Sections of 4-μm thick fixed tissue were stained with periodic acid Schiff (PAS) reagent and Masson's trichrome staining. Arteriolar morphology was assessed by indirect peroxidase immunostaining for alpha-smooth muscle actin (DAKO Corp, Carpinteria, Calif., USA). Renal sections incubated with normal rabbit serum were used as negative controls for immunostaining against alpha smooth-muscle actin. For each arteriole, the outline of the vessel and its internal lumen (excluding the endothelium) were generated using computer analysis to calculate the total medial area (outline inline), in 10 arterioles per biopsy. The media/lumen ratio was calculated by the outline/inline relationship (See, Sanchez-Lozada L G et al., “Mild hyperuricemia induces glomerular hypertension in normal rats”, Am J Physiol Renal Physiol 283:[…]-[…] (2002); Sanchez-Lozada L G, et al., “Mild hyperuricemia induces vasoconstriction and maintains glomerular hypertension in normal and remnant kidney rats,” Kidney Int 67:237-247 (2005), the contents of each are herein incorporated by reference). Quantifications were performed blinded.

[5] = RK rats (RK + Fx or RK + OA group), end of four weeks

Q: With O=C(O)c1nc(=O)[nH]c(=O)[nH]1 [OA, oxonic acid, reference compound] as the compound, how does the BW (remnant kidney (RK) rats [1]; End of Week 4) read?
A: Its BW is 328.5 ± 6.6 g.

Q: What about the “BW Gain (from baseline)” value (remnant kidney (RK) rats [1]; End of Week 4) of the same compound?
A: Its value is 5.5 ± 10.3 g.

Q: And the “Daily Food Intake” value (remnant kidney (RK) rats [1]; Week 1)?
A: Its value is 14.2 ± 2.1 g.

Q: And the “Daily Water Intake” value (remnant kidney (RK) rats [1]; Week 1)?
A: The value was 44.3 ± 3.5 mL.

Q: And the “Daily Food Intake” value (remnant kidney (RK) rats [1]; Week 2)?
A: The value was 19.7 ± 0.7 g.

Q: What about the “Daily Water Intake” value (remnant kidney (RK) rats [1]; Week 2) of the same compound?
A: The value was 58.6 ± 1.4 mL.

Q: What about the “Daily Food Intake” value (remnant kidney (RK) rats [1]; Week 3) of the same compound?
A: Its value is 21.3 ± 1.0 g.

Q: What about the “Daily Water Intake” value (remnant kidney (RK) rats [1]; Week 3) of the same compound?
A: The value was 57.2 ± 2.6 mL.

Q: And the “Daily Food Intake” value (remnant kidney (RK) rats [1]; Week 4)?
A: The value was 20.7 ± 0.9 g.

Q: What about the “Daily Water Intake” value (remnant kidney (RK) rats [1]; Week 4) of the same compound?
A: The value was 48.6 ± 3.0 mL.

Q: And the “Plasma uric acid relative to the RK control rats (in words)” value (remnant kidney (RK) rats [2])?
A: The value was “increased significantly by over two-fold”.

Q: What about the GFR (remnant kidney (RK) rats [3]; [5]) of the same compound?
A: The GFR was 0.29 ± 0.06 mL/min.

Q: What about the Kf (remnant kidney (RK) rats [3]; [5]) of the same compound?
A: The Kf was 0.027 ± 0.003 nL/s · mmHg.

Q: What about the PGC (remnant kidney (RK) rats [3]; [5]) of the same compound?
A: The PGC was 64.4 ± 1.1 mmHg.

Q: What about the QA (remnant kidney (RK) rats [3]; [5]) of the same compound?
A: The QA was 170 ± 16 nL/min.

Q: And the SNGFR (remnant kidney (RK) rats [3]; [5])?
A: Its SNGFR is 51.3 ± 4.8 nL/min.

Q: What about the MAP (remnant kidney (RK) rats [3]; RK rats (RK + Fx or RK + OA group), end of four weeks, under anesthesia) of the same compound?
A: The MAP was 198 ± 10 mmHg.

Q: What about the “Glomerular plasma flow (in words)” value (remnant kidney (RK) rats [3]; RK+OA group) of the same compound?
A: Its value is “significant decrease”.

Q: What about the “GFR (in words)” value (remnant kidney (RK) rats [3]; RK+OA rats vs RK control group) of the same compound?
A: The value was “similarly low as in the RK control group”.

Q: What about the “Single-nephron GFR (in words)” value (remnant kidney (RK) rats [3]; RK+OA rats vs RK control group) of the same compound?
A: The value was “lower compared to the RK control group”.

Q: What about the “Afferent resistance (in words)” value (remnant kidney (RK) rats [3]; RK+OA rats vs RK control rats) of the same compound?
A: The value was “significantly elevated”.

Q: What about the “Thickening of preglomerular vessels / afferent arteriole (in words)” value (remnant kidney (RK) rats [4]) of the same compound?
A: Its value is “developed additional thickening of the afferent arteriole”.
